Results reported in PMC10073347 (Nature chemistry, 2023).

Target: T1, SeMet CtdP (Penicillium citrinum, UniProt Z9QVB9HE69)
T1 sequence (Z9QVB9HE69 1-348): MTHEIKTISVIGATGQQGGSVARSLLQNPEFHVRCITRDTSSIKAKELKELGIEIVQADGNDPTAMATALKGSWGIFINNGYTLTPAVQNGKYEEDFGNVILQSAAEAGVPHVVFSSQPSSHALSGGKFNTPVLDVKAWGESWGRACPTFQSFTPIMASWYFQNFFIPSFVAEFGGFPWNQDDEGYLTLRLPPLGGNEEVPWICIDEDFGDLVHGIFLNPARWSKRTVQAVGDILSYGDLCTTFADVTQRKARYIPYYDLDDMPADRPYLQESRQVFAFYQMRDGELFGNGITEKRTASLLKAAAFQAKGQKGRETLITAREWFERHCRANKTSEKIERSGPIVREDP
Test: X-ray crystal structure, […] Å, SeMet SAD
Format: binding
Conditions: bound in all four chains; product 10 in chains A, B, D

NC(=O)c1ccc[n+]([C@@H]2O[C@H](COP(=O)(O)OP(=O)(O)OC[C@H]3O[C@@H](n4cnc5c(N)ncnc54)[C@H](OP(=O)(O)O)[C@@H]3O)[C@@H](O)[C@H]2O)c1 [NADP^+]
X-ray crystal structure, 2.5 Å, SeMet SAD: four chains (A-D) in the asymmetric unit, all in complex with NADP^+
